Data on one compound can be found in paper PMC5218480 (PLoS ONE, 2017).

This test has as its system MV-4-11 cells. Put plainly: Gene expression microarray analysis (Affymetrix PrimeView) and GSEA. To be noted: ProbeSet 11755425_a_at; LIST B. Details: RFU PODN (11730768_x_at) / Fold change /veh PODN (11730768_x_at) / RFU LINC00158 (11744669_a_at) / Fold change /veh LINC00158 (11744669_a_at) / RFU DUSP10 (11751237_a_at) / Fold change /veh DUSP10 (11751237_a_at) / RFU ID3 (11757404_x_at) / Fold change /veh ID3 (11757404_x_at) / RFU PLEKHG5 (11737974_s_at) / Fold change /veh PLEKHG5 (11737974_s_at) / RFU LRRC4B (11730491_at) / Fold change /veh LRRC4B (11730491_at) / RFU GIMAP4 (11747438_a_at) / Fold change /veh GIMAP4 (11747438_a_at) / RFU KRT8 (11758183_x_at) / Fold change /veh KRT8 (11758183_x_at) / RFU CNN1 (11734310_a_at) / Fold change /veh CNN1 (11734310_a_at) / RFU VPS37D (11726825_at) / Fold change /veh VPS37D (11726825_at) / RFU C10orf10 (11716522_x_at) / Fold change /veh C10orf10 (11716522_x_at) / RFU KIR2DL2 /// KIR2DL4 /// KIR2DL5A /// KIR2DL5B /// KIR2DS1 /// KIR2DS2 /// KIR2DS3 /// KIR2DS4 /// KIR3DL3 /// KIR3DL3 /// KIR3DS1 (11738374_at) / Fold change /veh KIR2DL2 /// KIR2DL4 /// KIR2DL5A /// KIR2DL5B /// KIR2DS1 /// KIR2DS2 /// KIR2DS3 /// KIR2DS4 /// KIR3DL3 /// KIR3DL3 /// KIR3DS1 (11738374_at) / RFU C1QL1 (11718748_at) / Fold change /veh C1QL1 (11718748_at) / RFU TMPRSS4 (11747572_a_at) / Fold change /veh TMPRSS4 (11747572_a_at) / RFU HAMP (11756126_x_at) / Fold change /veh HAMP (11756126_x_at) / RFU RNFT2 (11725882_a_at) / Fold change /veh RNFT2 (11725882_a_at) / RFU NR4A2 (11747474_a_at) / Fold change /veh NR4A2 (11747474_a_at) / RFU ABCC12 (11746883_a_at) / Fold change /veh ABCC12 (11746883_a_at) / RFU TMEM136 (11760407_x_at) / Fold change /veh TMEM136 (11760407_x_at) / RFU CLDN22 /// WWC2 (11732394_at) / Fold change /veh CLDN22 /// WWC2 (11732394_at) / RFU HLA-DPB1 (11760878_x_at) / Fold change /veh HLA-DPB1 (11760878_x_at) / RFU SPINT1 (11716480_a_at) / Fold change /veh SPINT1 (11716480_a_at) / RFU GAP43 (11754022_s_at) / Fold change /veh GAP43 (11754022_s_at) / RFU A4GNT (11735810_at) / Fold change /veh A4GNT (11735810_at) / RFU PRB3 (11715151_x_at) / Fold change /veh PRB3 (11715151_x_at) / RFU TUBB4B (11761932_at) / Fold change /veh TUBB4B (11761932_at) / RFU CAPN14 (11732068_a_at) / Fold change /veh CAPN14 (11732068_a_at) / RFU TMCC2 (11721928_a_at) / Fold change /veh TMCC2 (11721928_a_at) / RFU IRGQ (11745062_a_at) / Fold change /veh IRGQ (11745062_a_at) / RFU FAM174B (11720279_a_at) / Fold change /veh FAM174B (11720279_a_at) / RFU TMPRSS4 (11748680_a_at) / Fold change /veh TMPRSS4 (11748680_a_at) / RFU FAM212B (11763350_a_at) / Fold change /veh FAM212B (11763350_a_at) / RFU PLEKHG5 (11743358_a_at) / Fold change /veh PLEKHG5 (11743358_a_at) / RFU ZSCAN30 (11745921_a_at) / Fold change /veh ZSCAN30 (11745921_a_at) / RFU CMKLR1 (11741424_a_at) / Fold change /veh CMKLR1 (11741424_a_at) / RFU LOC101060620 /// MAPK8IP1 (11723275_at) / Fold change /veh LOC101060620 /// MAPK8IP1 (11723275_at) / RFU SPTSSB (11747773_x_at) / Fold change /veh SPTSSB (11747773_x_at) / RFU PRSS12 (11739890_at) / Fold change /veh PRSS12 (11739890_at) / RFU BIN1 (11741810_x_at) / Fold change /veh BIN1 (11741810_x_at) / RFU WNT11 (11732464_a_at) / Fold change /veh WNT11 (11732464_a_at) / RFU C10orf10 (11716521_a_at) / Fold change /veh C10orf10 (11716521_a_at) / RFU C5orf56 (11738089_at) / Fold change /veh C5orf56 (11738089_at) / RFU CYB561 (11721691_x_at) / Fold change /veh CYB561 (11721691_x_at) / RFU ANKRD19P (11752326_a_at) / Fold change /veh ANKRD19P (11752326_a_at) / RFU OR2T12 /// OR2T33 /// OR2T8 (11738714_s_at) / Fold change /veh OR2T12 /// OR2T33 /// OR2T8 (11738714_s_at) / RFU VCAN (11748164_a_at) / Fold change /veh VCAN (11748164_a_at) / RFU JSRP1 (11732532_at) / Fold change /veh JSRP1 (11732532_at) / RFU KRTAP10-11 (11738290_x_at) / Fold change /veh KRTAP10-11 (11738290_x_at) / RFU MYO3A (11730013_a_at) / Fold change /veh MYO3A (11730013_a_at) / RFU EBF3 (11725865_a_at) / Fold change /veh EBF3 (11725865_a_at) / RFU CAMK2N1 (11719241_x_at) / Fold change /veh CAMK2N1 (11719241_x_at) / RFU C5orf56 (11738088_a_at) / Fold change /veh C5orf56 (11738088_a_at) / RFU OLFML3 (11715873_a_at) / Fold change /veh OLFML3 (11715873_a_at) / RFU LOC100653217 /// NTM (11731650_a_at) / Fold change /veh LOC100653217 /// NTM (11731650_a_at) / RFU MAPK11 (11762145_a_at) / Fold change /veh MAPK11 (11762145_a_at) / RFU FIZ1 (11724087_x_at) / Fold change /veh FIZ1 (11724087_x_at) / RFU OASL (11726364_x_at) / Fold change /veh OASL (11726364_x_at) / RFU SOX15 (11748057_x_at) / Fold change /veh SOX15 (11748057_x_at) / RFU CD79A (11719716_a_at) / Fold change /veh CD79A (11719716_a_at) / RFU HIST1H1D (11736915_at) / Fold change /veh HIST1H1D (11736915_at) / RFU CASKIN2 (11723855_a_at) / Fold change /veh CASKIN2 (11723855_a_at) / RFU LOC730098 (11760151_x_at) / Fold change /veh LOC730098 (11760151_x_at) / RFU OR4N2 (11742367_at) / Fold change /veh OR4N2 (11742367_at) / RFU PRRT2 (11749266_a_at) / Fold change /veh PRRT2 (11749266_a_at) / RFU SNX32 (11753110_a_at) / Fold change /veh SNX32 (11753110_a_at) / RFU CDHR5 (11726645_a_at) / Fold change /veh CDHR5 (11726645_a_at) / RFU RCAN1 (11760418_a_at) / Fold change /veh RCAN1 (11760418_a_at) / RFU FAM167A (11723789_a_at) / Fold change /veh FAM167A (11723789_a_at) / RFU FAM26E (11764081_at) / Fold change /veh FAM26E (11764081_at) / RFU ISYNA1 (11749810_s_at) / Fold change /veh ISYNA1 (11749810_s_at) / RFU ACY1 (11761880_at) / Fold change /veh ACY1 (11761880_at) / RFU 11764098_at / Fold change /veh 11764098_at / RFU SAMD14 (11745864_x_at) / Fold change /veh SAMD14 (11745864_x_at) / RFU NPB (11741838_a_at) / Fold change /veh NPB (11741838_a_at) / RFU TMPRSS6 (11731388_a_at) / Fold change /veh TMPRSS6 (11731388_a_at) / RFU KRTAP10-2 (11738614_at) / Fold change /veh KRTAP10-2 (11738614_at) / RFU ARHGAP8 /// PRR5-ARHGAP8 (11727945_x_at) / Fold change /veh ARHGAP8 /// PRR5-ARHGAP8 (11727945_x_at) / RFU KRTAP5-7 /// NADSYN1 (11734609_at) / Fold change /veh KRTAP5-7 /// NADSYN1 (11734609_at) / RFU RASL12 (11751679_a_at) / Fold change /veh RASL12 (11751679_a_at) / RFU CDKN2B (11736163_a_at) / Fold change /veh CDKN2B (11736163_a_at) / RFU PRF1 (11729649_at) / Fold change /veh PRF1 (11729649_at) / RFU, ZNF638 /// ZNF638-IT1 / Fold change vs veh, ZNF638 /// ZNF638-IT1 / RFU, PANK3 / Fold change vs veh, PANK3 / RFU, SH3YL1 / Fold change vs veh, SH3YL1 / RFU, ZEB2 / Fold change vs veh, ZEB2 / RFU, NRIP1 / Fold change vs veh, NRIP1 / RFU, PTTG1IP / Fold change vs veh, PTTG1IP / RFU, CAPN2 / Fold change vs veh, CAPN2 / RFU, MED14 / Fold change vs veh, MED14 / RFU, SNORA58 / Fold change vs veh, SNORA58 / RFU, C1orf63 / Fold change vs veh, C1orf63 / RFU, LRRFIP1 / Fold change vs veh, LRRFIP1 / RFU, NDUFAF7 / Fold change vs veh, NDUFAF7 / RFU, SLC12A2 / Fold change vs veh, SLC12A2 / RFU, IBTK / Fold change vs veh, IBTK / RFU, ESF1 / Fold change vs veh, ESF1 / Fold change vs veh, TMEM50B / RFU, TAOK1 / Fold change vs veh, TAOK1 / RFU, ACBD3 / Fold change vs veh, ACBD3 / RFU, TMA16 / Fold change vs veh, TMA16 / RFU, RWDD3 / Fold change vs veh, RWDD3 / RFU, BCAT1 / Fold change vs veh, BCAT1 / RFU, EDEM3 / Fold change vs veh, EDEM3 / RFU, TMEM33 / Fold change vs veh, TMEM33 / RFU, WDR75 / Fold change vs veh, WDR75 / RFU, AHCTF1 / Fold change vs veh, AHCTF1 / RFU, TFRC / Fold change vs veh, TFRC / RFU, ZDHHC17 / Fold change vs veh, ZDHHC17 / RFU, NOM1 / Fold change vs veh, NOM1 / RFU, ARL8B / Fold change vs veh, ARL8B / RFU, ZBTB11 / Fold change vs veh, ZBTB11 / RFU, TAMM41 / Fold change vs veh, TAMM41 / RFU, KIAA1704 /// LOC100996395 / Fold change vs veh, KIAA1704 /// LOC100996395 / RFU, ING1 / Fold change vs veh, ING1 / RFU, TRMT61B / Fold change vs veh, TRMT61B / RFU, FUBP3 / Fold change vs veh, FUBP3 / RFU, TP53 / Fold change vs veh, TP53 / RFU, TNKS2 / Fold change vs veh, TNKS2 / RFU, ZFP14 / Fold change vs veh, ZFP14 / RFU, ACTR2 / Fold change vs veh, ACTR2 / RFU, PPP3R1 / Fold change vs veh, PPP3R1 / RFU, PIK3R1 / Fold change vs veh, PIK3R1 / RFU, HNRNPA1 / Fold change vs veh, HNRNPA1 / RFU, RNF170 / Fold change vs veh, RNF170 / RFU, ZNF28 / Fold change vs veh, ZNF28 / RFU, RNGTT / Fold change vs veh, RNGTT / RFU, OGT / Fold change vs veh, OGT / RFU, BRD1 / Fold change vs veh, BRD1 / RFU, MARS / Fold change vs veh, MARS / RFU, ZNF655 / Fold change vs veh, ZNF655 / RFU, FAHD1 / Fold change vs veh, FAHD1 / RFU, BDP1 / Fold change vs veh, BDP1 / RFU, LRRCC1 / Fold change vs veh, LRRCC1 / RFU, ARID1A / Fold change vs veh, ARID1A / RFU, ZNF146 / Fold change vs veh, ZNF146 / RFU, ZNF330 / Fold change vs veh, ZNF330 / RFU, GPN3 / Fold change vs veh, GPN3 / RFU, C9orf123 / Fold change vs veh, C9orf123 / RFU, N4BP2L2 / Fold change vs veh, N4BP2L2 / RFU, ARFIP1 / Fold change vs veh, ARFIP1 / RFU, FAM179B / Fold change vs veh, FAM179B / RFU, BCL10 / Fold change vs veh, BCL10 / RFU, UHRF1BP1L / Fold change vs veh, UHRF1BP1L / RFU, BET1 / Fold change vs veh, BET1 / RFU, CNOT2 / Fold change vs veh, CNOT2 / RFU, ZNF268 / Fold change vs veh, ZNF268 / Fold change vs veh, ZNF507 / RFU, DGCR2 / Fold change vs veh, DGCR2 / RFU, WDSUB1 / Fold change vs veh, WDSUB1 / Fold change vs veh, HSP90B1 /// MIR3652 / RFU, ADSS / Fold change vs veh, ADSS / RFU, GK / Fold change vs veh, GK / RFU, ZNF148 / Fold change vs veh, ZNF148 / RFU, TAF9 / Fold change vs veh, TAF9 / RFU, SLC1A5 / Fold change vs veh, SLC1A5 / RFU, SLMO2 / Fold change vs veh, SLMO2 / RFU, ABCC4 / Fold change vs veh, ABCC4 / RFU, LOC101060439 /// RAP1B / Fold change vs veh, LOC101060439 /// RAP1B / RFU, RFX7 / Fold change vs veh, RFX7 / RFU, GTPBP10 / Fold change vs veh, GTPBP10 / RFU, CNEP1R1 / Fold change vs veh, CNEP1R1 / RFU, BIVM-ERCC5 /// ERCC5 / Fold change vs veh, BIVM-ERCC5 /// ERCC5 / RFU, ILF3 / Fold change vs veh, ILF3 / RFU 11762660_at / Fold change /veh 11762660_at / RFU VCAN (11757783_s_at) / Fold change /veh VCAN (11757783_s_at) / RFU DDX43 (11728927_at) / Fold change /veh DDX43 (11728927_at) / RFU KRT8 (11758188_x_at) / Fold change /veh KRT8 (11758188_x_at) / RFU NKD1 (11759106_at) / Fold change /veh NKD1 (11759106_at) / RFU SRD5A1 (11742802_a_at) / Fold change /veh SRD5A1 (11742802_a_at) / RFU TPSAB1 /// TPSB2 (11721975_s_at) / Fold change /veh TPSAB1 /// TPSB2 (11721975_s_at) / RFU GSTM3 (11746129_a_at) / Fold change /veh GSTM3 (11746129_a_at) / RFU IL23R (11737362_x_at) / Fold change /veh IL23R (11737362_x_at) / RFU TMEM51 (11727254_a_at) / Fold change /veh TMEM51 (11727254_a_at) / RFU PIWIL2 (11732686_x_at) / Fold change /veh PIWIL2 (11732686_x_at) / RFU ORM1 (11744905_x_at) / Fold change /veh ORM1 (11744905_x_at) / RFU CCDC152 (11743942_at) / Fold change /veh CCDC152 (11743942_at) / RFU ECM1 (11717891_a_at) / Fold change /veh ECM1 (11717891_a_at) / RFU IL23R (11748794_a_at) / Fold change /veh IL23R (11748794_a_at) / RFU TNFAIP8L3 (11732012_x_at) / Fold change /veh TNFAIP8L3 (11732012_x_at) / RFU MBOAT4 (11741988_at) / Fold change /veh MBOAT4 (11741988_at) / RFU 11764193_at / Fold change /veh 11764193_at / RFU TMEM53 (11763286_at) / Fold change /veh TMEM53 (11763286_at) / RFU MAGEB2 (11727129_at) / Fold change /veh MAGEB2 (11727129_at) / RFU TMEM200A (11744735_a_at) / Fold change /veh TMEM200A (11744735_a_at) / RFU CCDC152 (11751479_a_at) / Fold change /veh CCDC152 (11751479_a_at) / RFU FAM211A (11726209_a_at) / Fold change /veh FAM211A (11726209_a_at) / RFU RGS16 (11746705_a_at) / Fold change /veh RGS16 (11746705_a_at) / RFU VCAN (11755009_s_at) / Fold change /veh VCAN (11755009_s_at) / RFU RHOB (11743442_s_at) / Fold change /veh RHOB (11743442_s_at) / RFU RGS16 (11720943_a_at) / Fold change /veh RGS16 (11720943_a_at) / RFU RGS16 (11720944_at) / Fold change /veh RGS16 (11720944_at) / RFU, VPS4B / Fold change vs veh, VPS4B / RFU, CREB1 / Fold change vs veh, CREB1 / RFU, DNAJC13 / Fold change vs veh, DNAJC13 / RFU, GNAQ / Fold change vs veh, GNAQ / RFU, CDK5R1 / Fold change vs veh, CDK5R1 / RFU, ZRANB3 / Fold change vs veh, ZRANB3 / RFU, CUL4A / Fold change vs veh, CUL4A / RFU, CCNY / Fold change vs veh, CCNY / RFU, UFL1 / Fold change vs veh, UFL1 / RFU, COG3 / Fold change vs veh, COG3 / RFU, DIAPH2 / Fold change vs veh, DIAPH2 / RFU, SKA2 / Fold change vs veh, SKA2 / RFU, AFF3 / Fold change vs veh, AFF3 / RFU, LMF1 / Fold change vs veh, LMF1 / RFU, IPO11 / Fold change vs veh, IPO11 / RFU, DFFB / Fold change vs veh, DFFB / RFU, FOXP1 / Fold change vs veh, FOXP1 / RFU, CARD8 / Fold change vs veh, CARD8 / RFU, STRN3 / Fold change vs veh, STRN3 / RFU, ADK / Fold change vs veh, ADK / RFU, RASSF2 / Fold change vs veh, RASSF2 / RFU, WIPF1 / Fold change vs veh, WIPF1 / RFU, LARP1B / Fold change vs veh, LARP1B / RFU, RASA1 / Fold change vs veh, RASA1 / RFU, RB1 / Fold change vs veh, RB1 / RFU, PPFIA1 / Fold change vs veh, PPFIA1 / RFU, MAT2A / Fold change vs veh, MAT2A / RFU, CCT5 / Fold change vs veh, CCT5 / RFU, WDR92 / Fold change vs veh, WDR92 / RFU, CUX1 / Fold change vs veh, CUX1 / RFU, TTC7A / Fold change vs veh, TTC7A / RFU, TMEM135 / Fold change vs veh, TMEM135 / RFU, DEPTOR / Fold change vs veh, DEPTOR / RFU, CPM / Fold change vs veh, CPM / RFU, DNAJB6 / Fold change vs veh, DNAJB6 / RFU, CACNA2D3 / Fold change vs veh, CACNA2D3 / RFU, DTX4 / Fold change vs veh, DTX4 / RFU, TFCP2 / Fold change vs veh, TFCP2 / RFU, GMCL1 /// GMCL1P1 / Fold change vs veh, GMCL1 /// GMCL1P1 / RFU, AEBP2 / Fold change vs veh, AEBP2 / RFU, SNHG1 /// SNORD22 /// SNORD25 /// SNORD26 /// SNORD27 /// SNORD28 /// SNORD29 /// SNORD31 / Fold change vs veh, SNHG1 /// SNORD22 /// SNORD25 /// SNORD26 /// SNORD27 /// SNORD28 /// SNORD29 /// SNORD31 / Fold change (Aza/veh), C12orf56 (ProbeSet 11735607_a_at) / Fold change (ACY-1035/veh), C12orf56 (ProbeSet 11735607_a_at) / Fold change (Aza/veh), FGFR1OP (ProbeSet 11751329_s_at) / Fold change (ACY-1035/veh), FGFR1OP (ProbeSet 11751329_s_at) / Fold change (Aza/veh), VPS36 (ProbeSet 11739960_a_at) / Fold change (ACY-1035/veh), VPS36 (ProbeSet 11739960_a_at) / RFU SYPL1 (11715823_x_at) / Fold change /veh SYPL1 (11715823_x_at) / RFU IGFBP7 (11715501_s_at) / Fold change /veh IGFBP7 (11715501_s_at) / RFU REEP3 (11722064_at) / Fold change /veh REEP3 (11722064_at) / RFU IGLL1 (11728026_x_at) / Fold change /veh IGLL1 (11728026_x_at): dose or concentration left out as unconfirmed. The class given is cell-based, human.

In the case of `Nc1ncn([C@@H]2O[C@H](CO)[C@@H](O)[C@H]2O)c(=O)n1` [azacitidine], the “Fold change vs veh, FAM179B” value came out at 0.87.
